Results published in US20240415778A1, “ORAL PREPARATION CONTAINING PROGESTOGEN, AND PREPARATION METHOD AND USE” (priority 2021, published 2024).
Entries after “also recorded” stand apart in the source; their conditions may differ. Where two headings read alike, the source gives them in different places.

Experiments:
[1] = Solubility property of 17-HPC in different excipients; type: physicochemical
From the text: However, the stable solubility concentrations vary for each excipient, with specific values provided in the last column of Table 2.

[2] = Acceptable daily intake (ADI) of excipients
From the text: The applicant has previously collaborated with other entities to develop an oral formulation of 17-α hydroxyprogesterone and obtained a patent for it.

[3] = WHO-JECFA database or supplier values; cited from earlier work

| Molecule | Suggested working concentrations based on physical stability and saturated solubility results ([1]; Glycerol Monooleate (Maisine ® CC)) | Suggested working concentrations based on physical stability and saturated solubility results ([1]; Mono-Octanoin Glyceride (Capmul 808G)) | Suggested working concentrations based on physical stability and saturated solubility results ([1]; Oleic Acid) | Suggested working concentrations based on physical stability and saturated solubility results ([1]; Oleic Acid Glyceride (Peceol ®)) | Suggested working concentrations based on physical stability and saturated solubility results ([1]; Olive Oil) | Suggested working concentrations based on physical stability and saturated solubility results ([1]; PEG15 Hydroxystearate (Kolliphor ® HS15)) | Suggested working concentrations based on physical stability and saturated solubility results ([1]; PEG35 Castor Oil (Kolliphor ® ELP)) | Suggested working concentrations based on physical stability and saturated solubility results ([1]; PEG40 Hydrogenated Castor Oil (Kolliphor ® RH40)) | Suggested working concentrations based on physical stability and saturated solubility results ([1]; Propylene Glycol Monocaprylate (Capryol ® 90)) | Suggested working concentrations based on physical stability and saturated solubility results ([1]; Propylene Glycol Monolaurate (Lauroglycol ® 90)) | ADI/Weight 60 kg [2] | Acceptable Daily Intake (ADI) [3] | ADI/Weight 60 kg ([2]; for 60 kg body weight) |
| --- | --- | --- | --- | --- | --- | --- | --- | --- | --- | --- | --- | --- | --- |
| CCCCCC(=O)O[C@]1(C(C)=O)CC[C@H]2[C@@H]3CCC4=CC(=O)CC[C@]4(C)[C@H]3CC[C@@]21C [Formulation 17-HPC, hydroxyprogesterone caproate] | 65 mg/g | 120 mg/g | 70 mg/g | 50 mg/g | insufficient to meet the meaningful solubility concentration required for adult formulations | cannot achieve stable solubility; also recorded: Chemically unstable | 30 mg/g | cannot achieve stable solubility; also recorded: Chemically unstable | 150 mg/g | 100 mg/g | – | – | – |
| CCCCCCCC(=O)OCC(O)CO (centres unmarked) [Glycerol monocaprylate] | – | – | – | – | – | – | – | – | – | – | none | none | – |
| Propylene glycol monocaprylate | – | – | – | – | – | – | – | – | – | – | – | 56 mg/kg/day | 3.36 |
